Here are results for twelve molecules from publication PMC7531004, “Discovery of gramicidin A analogues with altered activities by multidimensional screening of a one-bead-one-compound library” (Nature Communications, 2020).

The nature of data set [1]: H+/Na+ transport assay of bead-derived peptides (one-point).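 Note: relative to parent gramicidin A activity set to 1.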 The settings on record: bead-derived peptide solution, EYPC/EYPG LUVs. In kind it is biochemical. Set-up: key: relative activity; mean of two control wells = 1.00. In outline:
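One-point screen: peptide + pyranine-loaded LUVs, 30 min RT with vortexing, 96-well. Read-out is fluorescence intensity scaled as 100 × (Ix – I0)/(Imax – I0). Imax from Triton X-100, I0 from untreated vesicles, and the mean of the two control wells is set to 1.00.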

Data set [2] concerns P388 mouse leukemia cells. The settings on record: 92 h. In outline: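 Peptide stocks diluted 250× in growth medium; P388 cells 1 × 10^4 cells/mL final; 37 °C, 5% CO2, 92 h. WST-1 + 1-methoxy PMS, 4 h, A415. Output: % viability.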
In data set [3] the test system is Streptococcus pyogenes SSI-9. The experiment in a line: Antibacterial activity assay of bead-derived peptides (three concentrations). The class given is cell-based. Set-up: key: +++: inhibition by the 640-fold diluted peptide solution; ++: inhibition by the 160-fold diluted solution; +: inhibition by the 40-fold diluted solution; -: no inhibition. The note with it: S. pyogenes, bead-derived peptide solution, three concentrations. In outline:
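First, each peptide stock was diluted 4- and 16-fold in DMSO; next, the three solutions were mixed with S. pyogenes SSI-9 suspension (2 × 10^5 CFU) in cation-adjusted Mueller Hinton Broth plus 5% laked horse blood; finally, plates stood 18 h at 37 °C before checking for grown-cell precipitation.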

Where a SMILES comes first, the peptide text is derived from it. [ ]: non-standard residue; d: D form. The star is where a group is joined. NHCH2CH2OH = OCCN*; For = O=C*

As to `CC(C)C[C@@H](NC(=O)[C@H](C)NC(=O)[C@H](NC(=O)[C@H](C)NC(=O)CNC(=O)[C@@H](NC=O)C(C)C)[C@H](C)O)C(=O)N[C@H](C(=O)N[C@H](CC(C)C)C(=O)N[C@@H](Cc1c[nH]c2ccccc12)C(=O)N[C@@H](C(=O)N[C@@H](Cc1c[nH]c2ccccc12)C(=O)N[C@H](CC(C)C)C(=O)N[C@@H](Cc1c[nH]c2ccccc12)C(=O)N[C@H](CC(C)C)C(=O)N[C@@H](Cc1c[nH]c2ccccc12)C(=O)NCCO)C(C)C)C(C)C` [compound 11561] (For-VGA[dT]A[dL]V[dL]W[dV]W[dL]W[dL]W-NHCH2CH2OH), in data set [1], the “H+/Na+ transport activity normalized against the value of 1 (1.00)” value (shortened to “H+/Na+ transport activity normalized”) came out at 1.01. This molecule also displayed a cell viability/% in data set [2] of 100.0%. The antibacterial activity entry in data set [3] is recorded as “-”.
On to `CNC(=O)C[C@@H](NC(=O)[C@@H](NC(=O)[C@@H](CC(C)C)NC(=O)[C@H](C)NC(=O)[C@@H](CC(C)C)NC(=O)[C@H](C)NC(=O)CNC(=O)[C@@H](NC=O)C(C)C)C(C)C)C(=O)N[C@@H](Cc1c[nH]c2ccccc12)C(=O)N[C@@H](C(=O)N[C@@H](Cc1c[nH]c2ccccc12)C(=O)N[C@@H](C(=O)N[C@@H](Cc1c[nH]c2ccccc12)C(=O)N[C@H](CC(C)C)C(=O)N[C@@H](Cc1c[nH]c2ccccc12)C(=O)NCCO)C(C)C)C(C)C` [compound 11601] (For-VGA[dL]A[dL]V[dD](NHMe)W[dV]W[dV]W[dL]W-NHCH2CH2OH), for which, in data set [1], the “H+/Na+ transport activity normalized” value is on record as 1.23. Moreover, the cell viability/% in data set [2] was determined as 98.9%. Further, the antibacterial activity entry in data set [3] is “-”.
For the molecule `CC(C)C[C@@H](NC(=O)[C@H](C)NC(=O)CNC(=O)[C@@H](NC=O)C(C)C)C(=O)N[C@@H](C)C(=O)N[C@H](CC(C)C)C(=O)N[C@H](C(=O)N[C@H](CC(C)C)C(=O)N[C@@H](Cc1c[nH]c2ccccc12)C(=O)N[C@@H](C(=O)N[C@@H](Cc1c[nH]c2ccccc12)C(=O)N[C@@H](C(=O)N[C@@H](Cc1c[nH]c2ccccc12)C(=O)N[C@H](CC(C)C)C(=O)N[C@@H](Cc1c[nH]c2ccccc12)C(=O)NCCO)C(C)C)[C@H](C)O)C(C)C` [compound 11660] (For-VGA[dL]A[dL]V[dL]W[dT]W[dV]W[dL]W-NHCH2CH2OH), the “H+/Na+ transport activity normalized” value in data set [1] was found to be 1.09. Moreover, the cell viability/% in data set [2] was 100.0%. Besides, in data set [3], the antibacterial activity result was “-”.
`CC(C)C[C@@H](NC(=O)[C@H](Cc1c[nH]c2ccccc12)NC(=O)[C@@H](CC(C)C)NC(=O)[C@@H](NC(=O)[C@H](NC(=O)[C@H](C)NC(=O)[C@H](NC(=O)[C@H](C)NC(=O)CNC(=O)[C@@H](NC=O)C(C)C)[C@H](C)O)C(C)C)C(C)C)C(=O)N[C@@H](Cc1c[nH]c2ccccc12)C(=O)N[C@@H](C(=O)N[C@@H](Cc1c[nH]c2ccccc12)C(=O)N[C@@H](C(=O)N[C@@H](Cc1c[nH]c2ccccc12)C(=O)NCCO)C(C)C)C(C)C` [compound 11772] (For-VGA[dT]A[dV]V[dL]W[dL]W[dV]W[dV]W-NHCH2CH2OH): in data set [1], the “H+/Na+ transport activity normalized” value stood at 1.04. For the same molecule, in data set [2], the cell viability/% was determined as 100.0%. Besides, the antibacterial activity entry in data set [3] is recorded as “-”.
In the case of `CNC(=O)C[C@@H](NC(=O)[C@@H](NC(=O)[C@H](NC(=O)[C@H](C)NC(=O)[C@H](NC(=O)[C@H](C)NC(=O)CNC(=O)[C@@H](NC=O)C(C)C)C(C)C)C(C)C)C(C)C)C(=O)N[C@@H](Cc1c[nH]c2ccccc12)C(=O)N[C@H](CC(C)C)C(=O)N[C@@H](Cc1c[nH]c2ccccc12)C(=O)N[C@H](CC(C)C)C(=O)N[C@@H](Cc1c[nH]c2ccccc12)C(=O)N[C@@H](C(=O)N[C@@H](Cc1c[nH]c2ccccc12)C(=O)NCCO)C(C)C` [compound 11796] (For-VGA[dV]A[dV]V[dD](NHMe)W[dL]W[dL]W[dV]W-NHCH2CH2OH), the “H+/Na+ transport activity normalized” value in data set [1] is on record as 1.33. Also, the cell viability/% in data set [2] was found to be 100.0%. Moreover, the antibacterial activity entry in data set [3] is “-”.
On to `CC(C)C[C@@H](NC(=O)[C@H](C)NC(=O)CNC(=O)[C@@H](NC=O)C(C)C)C(=O)N[C@@H](C)C(=O)N[C@H](CC(C)C)C(=O)N[C@H](C(=O)N[C@@H](C(=O)N[C@@H](Cc1c[nH]c2ccccc12)C(=O)N[C@@H](C(=O)N[C@@H](Cc1c[nH]c2ccccc12)C(=O)N[C@@H](C(=O)N[C@@H](Cc1c[nH]c2ccccc12)C(=O)N[C@H](CC(C)C)C(=O)N[C@@H](Cc1c[nH]c2ccccc12)C(=O)NCCO)C(C)C)C(C)C)C(C)C)C(C)C` [compound 12040] (For-VGA[dL]A[dL]V[dV]W[dV]W[dV]W[dL]W-NHCH2CH2OH), for which the “H+/Na+ transport activity normalized” value in data set [1] came to 1.07. The same molecule showed a cell viability/% in data set [2] of 100.0%. In addition, the antibacterial activity result in data set [3] was “+”.
For the molecule `CC(C)C[C@@H](NC(=O)[C@H](C)NC(=O)CNC(=O)[C@@H](NC=O)C(C)C)C(=O)N[C@@H](C)C(=O)N[C@H](CC(C)C)C(=O)N[C@H](C(=O)N[C@@H](C(=O)N[C@@H](Cc1c[nH]c2ccccc12)C(=O)N[C@@H](C(=O)N[C@@H](Cc1c[nH]c2ccccc12)C(=O)N[C@@H](C(=O)N[C@@H](Cc1c[nH]c2ccccc12)C(=O)N[C@H](CC(C)C)C(=O)N[C@@H](Cc1c[nH]c2ccccc12)C(=O)NCCO)C(C)C)[C@H](C)O)C(C)C)C(C)C` [compound 12081] (For-VGA[dL]A[dL]V[dV]W[dT]W[dV]W[dL]W-NHCH2CH2OH), the “H+/Na+ transport activity normalized” value in data set [1] came out at 1.01. In addition, in data set [2], the cell viability/% was determined as 100.0%. In addition, in data set [3], the antibacterial activity result was “-”.
For `CC(C)C[C@@H](NC(=O)[C@H](C)NC(=O)CNC(=O)[C@@H](NC=O)C(C)C)C(=O)N[C@@H](C)C(=O)N[C@@H](C(=O)N[C@H](C(=O)N[C@@H](C(=O)N[C@@H](Cc1c[nH]c2ccccc12)C(=O)N[C@@H](C(=O)N[C@@H](Cc1c[nH]c2ccccc12)C(=O)N[C@@H](C(=O)N[C@@H](Cc1c[nH]c2ccccc12)C(=O)N[C@@H](C(=O)N[C@@H](Cc1c[nH]c2ccccc12)C(=O)NCCO)C(C)C)C(C)C)C(C)C)C(C)C)C(C)C)C(C)C` [compound 12092] (For-VGA[dL]A[dV]V[dV]W[dV]W[dV]W[dV]W-NHCH2CH2OH), the “H+/Na+ transport activity normalized” value in data set [1] amounted to 1.14. In data set [2], the cell viability/% came out at 100.0%. Moreover, the antibacterial activity result in data set [3] is listed as “+”.
`CC(C)C[C@@H](NC(=O)[C@H](C)NC(=O)[C@H](NC(=O)[C@H](C)NC(=O)CNC(=O)[C@@H](NC=O)C(C)C)C(C)C)C(=O)N[C@H](C(=O)N[C@@H](C(=O)N[C@@H](Cc1c[nH]c2ccccc12)C(=O)N[C@@H](C(=O)N[C@@H](Cc1c[nH]c2ccccc12)C(=O)N[C@H](CC(C)C)C(=O)N[C@@H](Cc1c[nH]c2ccccc12)C(=O)N[C@H](CC(C)C)C(=O)N[C@@H](Cc1c[nH]c2ccccc12)C(=O)NCCO)C(C)C)C(C)C)C(C)C` [compound 12099] (For-VGA[dV]A[dL]V[dV]W[dV]W[dL]W[dL]W-NHCH2CH2OH): the “H+/Na+ transport activity normalized” value in data set [1] was determined as 1.05. In addition, in data set [2], the cell viability/% came to 85.4%. Besides, in data set [3], the antibacterial activity result is given as “+”.
In the case of `CC(C)C[C@@H](NC(=O)[C@H](C)NC(=O)CNC(=O)[C@@H](NC=O)C(C)C)C(=O)N[C@@H](C)C(=O)N[C@@H](C(=O)N[C@H](C(=O)N[C@@H](C(=O)N[C@@H](Cc1c[nH]c2ccccc12)C(=O)N[C@H](CC(C)C)C(=O)N[C@@H](Cc1c[nH]c2ccccc12)C(=O)N[C@@H](C(=O)N[C@@H](Cc1c[nH]c2ccccc12)C(=O)N[C@H](CC(C)C)C(=O)N[C@@H](Cc1c[nH]c2ccccc12)C(=O)NCCO)C(C)C)[C@H](C)O)C(C)C)C(C)C` [compound 12185] (For-VGA[dL]A[dV]V[dT]W[dL]W[dV]W[dL]W-NHCH2CH2OH), the “H+/Na+ transport activity normalized” value in data set [1] was 1.02. Also, the cell viability/% in data set [2] amounted to 98.1%. In addition, in data set [3], the antibacterial activity result was “+”.
On the same counts, the results for `CC(C)C[C@@H](NC(=O)[C@H](C)NC(=O)[C@H](NC(=O)[C@H](C)NC(=O)CNC(=O)[C@@H](NC=O)C(C)C)C(C)C)C(=O)N[C@H](C(=O)N[C@@H](C(=O)N[C@@H](Cc1c[nH]c2ccccc12)C(=O)N[C@@H](C(=O)N[C@@H](Cc1c[nH]c2ccccc12)C(=O)N[C@@H](C(=O)N[C@@H](Cc1c[nH]c2ccccc12)C(=O)N[C@@H](C(=O)N[C@@H](Cc1c[nH]c2ccccc12)C(=O)NCCO)C(C)C)C(C)C)C(C)C)[C@H](C)O)C(C)C` [compound 12283] (For-VGA[dV]A[dL]V[dT]W[dV]W[dV]W[dV]W-NHCH2CH2OH) are 1.08, 100.0% and “-”.
As to `CC(C)C[C@@H](NC(=O)[C@H](C)NC(=O)[C@H](NC(=O)[C@H](C)NC(=O)CNC(=O)[C@@H](NC=O)C(C)C)C(C)C)C(=O)N[C@H](C(=O)N[C@@H](C(=O)N[C@@H](Cc1c[nH]c2ccccc12)C(=O)N[C@@H](C(=O)N[C@@H](Cc1c[nH]c2ccccc12)C(=O)N[C@H](CC(C)C)C(=O)N[C@@H](Cc1c[nH]c2ccccc12)C(=O)N[C@@H](C(=O)N[C@@H](Cc1c[nH]c2ccccc12)C(=O)NCCO)[C@H](C)O)C(C)C)C(C)C)C(C)C` [compound 12285] (For-VGA[dV]A[dL]V[dV]W[dV]W[dL]W[dT]W-NHCH2CH2OH), the “H+/Na+ transport activity normalized” value in data set [1] is on record as 1.01. This molecule returned a cell viability/% in data set [2] of 100.0%. Moreover, in data set [3], the antibacterial activity entry is “-”.
